Several values for one entry are separate records, joined by “and”; a condition that tells them apart may be missing. Equal values may be shown once. Toxic doses and inconclusive results are not listed.
Tested on: P388 leukemia ip, CD2F1 mice, survival T/C
Test: NCI In Vivo Anticancer Drug Screen. Data for tumor model P388 Leukemia (intraperitoneal) in CD2F1 (CDF1) mice
Conditions: endpoint: median survival time, higher = longer survival
Summary of the method: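 Mice carrying the transplanted tumor received test compound or vehicle. Survival was recorded in each group, and the value is the treated-group measurement divided by that of the vehicle-treated control group.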

[1] = dose: 50.0 mg/kg/injection, schedule: Q01DX005 (ip), vehicle: Klucel (hydroxypropylcellulose) (HPC)
[2] = dose: 100.0 mg/kg/injection, schedule: Q01DX005 (ip), vehicle: Klucel (hydroxypropylcellulose) (HPC)
[3] = dose: 200.0 mg/kg/injection, schedule: Q01DX005 (ip), vehicle: Klucel (hydroxypropylcellulose) (HPC)
[4] = dose: 50.0 mg/kg/injection, schedule: Q01DX009 (ip), vehicle: Klucel (hydroxypropylcellulose) (HPC)
[5] = dose: 100.0 mg/kg/injection, schedule: Q01DX009 (ip), vehicle: Klucel (hydroxypropylcellulose) (HPC)
[6] = dose: 200.0 mg/kg/injection, schedule: Q01DX009 (ip), vehicle: Klucel (hydroxypropylcellulose) (HPC)

Q: What does the source list for `O=C1N[C@H]2[C@H](O)[C@H](O)[C@@H](O)[C@H](O)[C@@H]2c2cc3c(c(O)c21)OCO3`?
A: T/C (dose: 0.18 mg/kg/injection, schedule: Q01DX009 (ip), vehicle: saline + Tween-80 + alcohol): 113 % of control; T/C (dose: 0.37 mg/kg/injection, schedule: Q01DX009 (ip), vehicle: saline + Tween-80 + alcohol): 122 % of control; T/C (dose: 0.38 mg/kg/injection, schedule: Q01DX005 (iv), vehicle: other): 105 % of control; T/C (dose: 0.38 mg/kg/injection, schedule: Q01DX009 (ip), vehicle: saline + alcohol): 119 % of control; T/C (dose: 0.75 mg/kg/injection, schedule: Q01DX005 (ip), vehicle: other): 122 % of control; T/C (dose: 0.75 mg/kg/injection, schedule: Q01DX005 (ip), vehicle: saline + alcohol): 116 % of control; T/C (dose: 0.75 mg/kg/injection, schedule: Q01DX005 (iv), vehicle: other): 105 % of control; T/C (dose: 1.5 mg/kg/injection, schedule: Q01DX005 (iv), vehicle: other): 106 % of control; T/C (dose: 3.0 mg/kg/injection, schedule: Q01DX005 (iv), vehicle: other): 108 % of control; T/C (dose: 3.0 mg/kg/injection, schedule: Q01DX009 (ip), vehicle: saline + Tween-80 + alcohol): 160 % of control; T/C (dose: 3.0 mg/kg/injection, schedule: Q01DX009 (ip), vehicle: saline + alcohol): 161 % of control; T/C (dose: 3.12 mg/kg/injection, schedule: Q01DX009 (ip), vehicle: saline + alcohol): 151 % of control; T/C (dose: 6.0 mg/kg/injection, schedule: Q01DX005 (ip), vehicle: other): 152 % of control; T/C (dose: 6.0 mg/kg/injection, schedule: Q01DX005 (iv), vehicle: other): 121 % of control; T/C (dose: 6.0 mg/kg/injection, schedule: Q01DX009 (ip), vehicle: saline + Tween-80 + alcohol): 162 % of control; T/C (dose: 6.0 mg/kg/injection, schedule: Q01DX009 (ip), vehicle: saline + alcohol): 165 % of control; T/C (dose: 6.25 mg/kg/injection, schedule: Q01DX005 (ip), vehicle: saline + alcohol): 105 % of control; T/C (dose: 6.25 mg/kg/injection, schedule: Q01DX009 (ip), vehicle: saline + alcohol): 155 % of control and 173 % of control; T/C (dose: 12.0 mg/kg/injection, schedule: Q01DX005 (ip), vehicle: other): 155 % of control; T/C (dose: 12.0 mg/kg/injection, schedule: Q01DX005 (ip), vehicle: saline + alcohol): 156 % of control; T/C (dose: 12.5 mg/kg/injection, schedule: Q01DX009 (ip), vehicle: saline + alcohol): 203 % of control

Q: How did the T/C (dose: 3.12 mg/kg/injection, schedule: Q01DX009 (ip), vehicle: saline) turn out when `COc1cccc(C(=O)C(CN(C)C)CN(C)C)c1` was run?
A: 100 % of control and 105 % of control

Q: What about the T/C (dose: 3.13 mg/kg/injection, schedule: Q01DX009 (ip), vehicle: saline) of the same molecule?
A: 106 % of control

Q: And the T/C (dose: 6.25 mg/kg/injection, schedule: Q01DX009 (ip), vehicle: saline)?
A: 103 % of control and 115 % of control and 97 % of control

Q: And the T/C (dose: 12.5 mg/kg/injection, schedule: Q01DX009 (ip), vehicle: saline)?
A: 108 % of control and 112 % of control and 123 % of control

Q: What about the T/C (dose: 25.0 mg/kg/injection, schedule: Q01DX009 (ip), vehicle: saline) of the same molecule?
A: 103 % of control and 123 % of control

Q: What does the source list for `CCOC(=O)c1cc(N)c(C(=O)OCC)cc1N`?
A: T/C (dose: 50.0 mg/kg/injection, schedule: Q01DX009 (ip), vehicle: saline with Tween-80): 97 % of control; T/C (dose: 100.0 mg/kg/injection, schedule: Q01DX009 (ip), vehicle: saline with Tween-80): 86 % of control and 96 % of control; T/C (dose: 200.0 mg/kg/injection, schedule: Q01DX009 (ip), vehicle: saline with Tween-80): 96 % of control and 97 % of control; T/C (dose: 400.0 mg/kg/injection, schedule: Q01DX009 (ip), vehicle: saline with Tween-80): 92 % of control and 96 % of control

Q: For `O=S(=O)(CCl)OCCF`, which T/C (dose: 1.56 mg/kg/injection, schedule: Q01DX009 (ip), vehicle: saline with Tween-80) is on record?
A: 110 % of control

Q: What about the T/C (dose: 3.12 mg/kg/injection, schedule: Q01DX009 (ip), vehicle: saline with Tween-80) of the same molecule?
A: 102 % of control

Q: And the T/C (dose: 6.25 mg/kg/injection, schedule: Q01DX009 (ip), vehicle: saline with Tween-80)?
A: 105 % of control and 117 % of control

Q: Which results are given for `COc1ccc(S(N)(=O)=O)cc1C(=O)NCCN1CCN(c2cccc(C(F)(F)F)c2)CC1`?
A: T/C [1]: 99 % of control; T/C [2]: 95 % of control

Q: Which results are given for `Cc1ccc(S(=O)(=O)NC(=O)Nc2ccccc2SC2CCc3ccccc32)cc1` (centres undefined)?
A: T/C [1]: 105 % of control; T/C [2]: 108 % of control; T/C [3]: 102 % of control

Q: With `Nc1nc(=O)n(CCCSc2ccc([N+](=O)[O-])cc2)cc1-c1ccc(Cl)c(Cl)c1` as the molecule, how does the T/C (dose: 60.0 mg/kg/injection, schedule: Q01DX005 (ip), vehicle: Klucel (hydroxypropylcellulose) (HPC)) read?
A: 87 % of control

Q: And the T/C (dose: 120.0 mg/kg/injection, schedule: Q01DX005 (ip), vehicle: Klucel (hydroxypropylcellulose) (HPC))?
A: 97 % of control

Q: And the T/C (dose: 240.0 mg/kg/injection, schedule: Q01DX005 (ip), vehicle: Klucel (hydroxypropylcellulose) (HPC))?
A: 88 % of control

Q: Which T/C (dose: 1.5 mg/kg/injection, schedule: Q01DX009 (ip), vehicle: saline) does the source give for `COc1cc(O)c2c(=O)c3c(O)c(OC4OC(COC5OC(C)C(O)C(O)C5O)C(O)C(O)C4O)ccc3oc2c1` (centres undefined) here?
A: 107 % of control

Q: And the T/C (dose: 3.0 mg/kg/injection, schedule: Q01DX009 (ip), vehicle: saline)?
A: 103 % of control

Q: And the T/C (dose: 6.0 mg/kg/injection, schedule: Q01DX009 (ip), vehicle: saline)?
A: 100 % of control

Q: And the T/C (dose: 12.0 mg/kg/injection, schedule: Q01DX009 (ip), vehicle: saline)?
A: 99 % of control

Q: How did the T/C (dose: 1.56 mg/kg/injection, schedule: Q04DX003 (ip), vehicle: saline) turn out when `[CH3][Sn]([Cl])([Cl])[c]1ccccc1` was run?
A: 114 % of control

Q: And the T/C (dose: 3.12 mg/kg/injection, schedule: Q04DX003 (ip), vehicle: saline)?
A: 109 % of control

Q: And the T/C (dose: 6.25 mg/kg/injection, schedule: Q04DX003 (ip), vehicle: saline)?
A: 106 % of control and 117 % of control

Q: Which results are given for `Cc1cc2cc3ccc(Cl)nn3c2nn1`?
A: T/C (dose: 25.0 mg/kg/injection, schedule: Q01DX005 (ip), vehicle: saline with Tween-80): 104 % of control; T/C (dose: 50.0 mg/kg/injection, schedule: Q01DX005 (ip), vehicle: saline with Tween-80): 99 % of control; T/C (dose: 100.0 mg/kg/injection, schedule: Q01DX005 (ip), vehicle: saline with Tween-80): 95 % of control; T/C (dose: 200.0 mg/kg/injection, schedule: Q01DX005 (ip), vehicle: saline with Tween-80): 96 % of control

Q: What does the source list for `CC(O)(CO)CC(C)(O)CO` (centres undefined)?
A: T/C (dose: 50.0 mg/kg/injection, schedule: Q01DX005 (ip), vehicle: saline): 97 % of control; T/C (dose: 100.0 mg/kg/injection, schedule: Q01DX005 (ip), vehicle: saline): 105 % of control; T/C (dose: 200.0 mg/kg/injection, schedule: Q01DX005 (ip), vehicle: saline): 103 % of control

Q: Which results are given for `C/C(=N\O)C1(O)CCCCC1`?
A: T/C [4]: 108 % of control; T/C [5]: 108 % of control; T/C [6]: 105 % of control; T/C (dose: 400.0 mg/kg/injection, schedule: Q01DX009 (ip), vehicle: Klucel (hydroxypropylcellulose) (HPC)): 113 % of control

Q: Which results are given for `C(=C\c1ccccn1)/c1ccc(/C=C/c2ccccn2)cc1`?
A: T/C (dose: 60.0 mg/kg/injection, schedule: Q01DX005 (ip), vehicle: saline with Tween-80): 98 % of control; T/C (dose: 120.0 mg/kg/injection, schedule: Q01DX005 (ip), vehicle: saline with Tween-80): 103 % of control; T/C (dose: 240.0 mg/kg/injection, schedule: Q01DX005 (ip), vehicle: saline with Tween-80): 97 % of control

Q: `CC(NC(CCCN=C(N)N)C(=O)O)C(=O)O` (centres undefined) was tested. Which T/C (dose: 60.0 mg/kg/injection, schedule: Q01DX005 (ip), vehicle: saline) did it give?
A: 92 % of control

Q: And the T/C (dose: 120.0 mg/kg/injection, schedule: Q01DX005 (ip), vehicle: saline)?
A: 100 % of control

Q: What about the T/C (dose: 240.0 mg/kg/injection, schedule: Q01DX005 (ip), vehicle: saline) of the same molecule?
A: 100 % of control

Q: For `Nc1ncnc2c1ncn2C[c-]1[c-][c-][c-][c-]1.[Fe].[c-]1[c-][c-][cH-][c-]1`, which T/C [1] is on record?
A: 94 % of control

Q: What about the T/C [2] of the same molecule?
A: 94 % of control

Q: And the T/C [3]?
A: 100 % of control

Q: What does the source list for `O=C1Nc2ccccc2/C1=N/N=C/c1ccco1`?
A: T/C [4]: 96 % of control; T/C [5]: 87 % of control; T/C [6]: 88 % of control

Q: Which T/C (dose: 100.0 mg/kg/injection, schedule: Q04DX003 (ip), vehicle: suspension in saline) does the source give for `Cc1ccc(S(=O)(=O)/N=S(\C)CCCl)cc1` (centres undefined) here?
A: 100 % of control

Q: What about the T/C (dose: 200.0 mg/kg/injection, schedule: Q04DX003 (ip), vehicle: suspension in saline) of the same molecule?
A: 100 % of control

Q: What about the T/C (dose: 400.0 mg/kg/injection, schedule: Q04DX003 (ip), vehicle: suspension in saline) of the same molecule?
A: 106 % of control

Q: With `Cc1cc(C)c(C#N)c(NN)n1` as the molecule, how does the T/C (dose: 6.25 mg/kg/injection, schedule: Q01DX005 (ip), vehicle: saline with Tween-80) read?
A: 99 % of control

Q: And the T/C (dose: 12.5 mg/kg/injection, schedule: Q01DX005 (ip), vehicle: saline with Tween-80)?
A: 103 % of control

Q: What does the source list for `O=C1CCc2cc([N+](=O)[O-])cc3c2N1CCC3`?
A: T/C [1]: 95 % of control and 96 % of control; T/C [2]: 104 % of control; T/C [3]: 98 % of control and 96 % of control
